Test results from PMC12203428, “Discovery of Clonixeril as a Sub-Femtomolar Modulator of the Human STING Receptor” (ACS Central Science, 2025).

Legend:
[1] = system: hSTING oligomerization in HEK293S cells; test: Clear native PAGE of hSTING oligomerization in HEK293S cells; assay type: cell-based, human; conditions: CXL 1 h, then 100 nM diABZI3 2 h
Protocol: To determine whether the results we observed in the DLS experiments could be recapitulated in cellulo, where full-length hSTING is present, we used HEK293T cells transfected with WT hSTING (referred to herein as HEK293S cells) to perform hSTING clear native PAGE experiments. […] Thus, HEK293S cells were harvested following treatment with 100 nM diABZI3 for 2 h, following a 1 h treatment of varying concentrations of CXL.
Invitrogen NativePAGE Sample Prep Kit Catalog number: BN2008, Invitrogen NativePAGE Running Buffer Kit Catalog number: BN2007 and Invitrogen NativePAGE 4 to 16%, Bis-Tris, 1.0 mm, Mini Protein Gels, 10 wells, (Cat. # BN1002BOX). Cells were harvested and CXL was added at varying concentrations for 1 h and followed by 2 h of diABZI3 at 100 nM. To the mammalian cells harvested in 1 mL cell culture, add 0.2 mL lysis buffer containing 10 mM HEPES, pH 7.5,150 mM NaCl, 5% glycerol, protease inhibitor cocktail, and 0.025% digitonin. Cells were lysed by sonicating for two rounds of 15 s each while cooling the sample on ice. Centrifuge the lysate at 20,000g for 10 min at 4 °C. Aliquot the supernatant into microcentrifuge tubes. To prepare the sample for loading a total volume of 20 μL NativePAGE including Sample Buffer (4×) 5 μLSTING supernatant, 14.5 μL and Ponceau S-dye: 0.5 μL. 1X NativePAGE Anode Buffer: Add 30 mL of 20X NativePAGE Running Buffer to 570 mL of deionized water. […]

[2] = system: THP1 STING knockout cells; test: STING knockout THP-1 luciferase assay; assay type: cell-based, human; conditions: WT-THP1 vs THP1 STING knockout cells
Text: docking algorithm to properly calculate estimated free energies of binding for the LD-protein […]
Differential Scanning Fluorimetry – Thermal Shift Experiment […]
to the endogenous ligand, 2’,3’-cGAMP, 2) unbound and 3) bound to ligands chosen by the virtual screening process for their potential to stabilize the active form of the STING molecule by binding to it. A TSA measures a protein's melting temperature (Tm), at which the protein is 50% denatured. The assay quantifies protein denaturation by measuring the increase in fluorescence of a dye that binds to hydrophobic residues exposed by unfolding of the protein.
To determine clonixeril’s hydrolytic stability and evaluate its potential as an oral drug, an aqueous solution was concentrated for analysis at 20 µM. The sample was analyzed by HPLC using an […]
The UV spectra of these peaks were compared by diode array and found to be identical with maximum absorbance at 280nm and 343nm. […]
the minor first peak matched the molecular weight of clonixin (M+H)+ and the second major peak matched the molecular weight of clonixeril (M+H)+. […] Hydrolysis of clonixeril to clonixin was measured by HPLC over seven days using a 20 µM aqueous solution. […]
Figure S4. […] (D) Quantification of luciferase assay performed using WT-THP1 and THP1 STING knockout cells in the presence and absence of clonixeril and/or 2’,3’-cGAMP. […]

Cc1c(Cl)cccc1Nc1ncccc1C(=O)OCC(O)CO (centres unmarked) [CXL, clonixeril]
Effect on hSTING oligomerization [1]: reduces hSTING oligomerization at concentrations down to attomolar levels | Pathway dependence of effect on pIRF3 production [2]: affecting pIRF3 production only through the STING pathway
